Patent US6159953A, “Anti-malarial composition and method of use” (Catholic University of America, priority 1992, dated 2000)
Read-outs that look alike come from different tables or passages of the source.

Assays:
[1] = Pharmacokinetics of 5-fluoro-orotate in mice; format: in vivo, Swiss white mice
Description: FIG. 3 illustrates time-dependant changes in plasma 5-fluoroorotate concentration following single intraperitoneal injections of 5-fluoro-orotate at 0.2 mg/kg (.box-solid.), 1 mg/kg (.diamond-solid.), or 5 mg/kg (.tangle-solidup.). Two mice were used at each dosage level. At each time point, duplicate 200 μl samples of blood were drawn and analyzed for 5-fluoro-orotate concentration.
Several types of in vivo experiments in intact vertebrates can be used to test the effectiveness in vivo of the anti-malarial compositions of this invention. In one in vivo test system, dosage regimens for pyrimidine analogues are estimated by determining the pharmacokinetics of the drugs. Normal and malaria parasite-infected animals (preferably mice, but other rodents can be used) are injected once (preferably intraperitoneally, but subcutaneous or intravenous administration is also suitable) with the drug at various doses, e.g, from 0 to about 10 mg/kg body weight, preferably from about 0.2 to about 5 mg/kg body weight. At various time points (preferably from about 3 to about 180 minutes), blood samples are drawn from the animals and the amount of the drug in the plasma fraction determined as described in Example 7 below. The concentration of drug is plotted as a function of time for each drug dosage.
Pairs of Swiss white mice (Charles River Labs, Mass.) were injected intraperitoneally with 200 μl of [2-^14 C]-5-fluoro-orotate in saline (55 μCi/μmol). Single injections of the drug were made at dosages of 0.2, 1 and 5 mg/kg body weight. At time points ranging from about 3 to about 180 minutes, two 200 μl blood samples were drawn from the tail veins of the mice, and the amount of 5-fluoro-orotate present in the plasma determined, as described below.
Blood samples were immediately diluted in 100 μl of cold saline, and centrifuged in a desk top Eppendorf centrifuge for 1 minute to separate the plasma fraction from blood cells. Cell pellets were washed with 100 μl of saline, centrifuged, and the supernatant fractions mixed with plasma fractions. In order to determine the 5-fluoro-orotate concentrations of the diluted plasma fractions, the radioactive content of half the samples was determined by liquid scintillation spectrometry. The remaining samples were chromatographed on a Pharmacia FPLC system using a Mono Q anion-exchange column.

[2] = Host toxicity in P. yoelii-infected mice (diarrhea, weight loss, tolerance); format: in vivo, Swiss white mice
Description: FIG. 6 illustrates the weight changes in mice receiving 5 mg/kg of 5-fluoro-orotate without (Δ) or with (.tangle-solidup.) uridine. The pyrimidine analogue was administered on days 3 to 6. The pyrimidine nucleoside was given to mice in experiment 2 on days 3 to 9. Data points represent mean weights of mice that remained alive during the course of experiments 1 and 2 (see FIG. 5C). Error bars represent standard deviations from the mean.
A second in vivo test system can be used to determine if repeated administration of the pyrimidine analogue would have safe anti-malarial activity. In this test system, groups of animals are infected with malaria parasites. At a time when blood parasitemia is reached, the animals are injected with saline alone (control) or with various concentrations of one or more pyrimidine analogues alone or together with one or more rescuing pyrimidine bases or nucleosides at a single concentration, at intervals, over a period of several days. In order to determine the prophylactic effectiveness of the rescuing pyrimidine base or nucleoside, the animals are pretreated with such a base or nucleoside prior to the administration of the pyrimidine analogue. Anti-malarial activity of the treatments is estimated by determining blood parasitemia on the animals at appropriate times. The safety of the treatments is estimated by monitoring animals for weight loss and diarrhea, as these are early symptoms of pyrimidine analogue toxicity [Houghton, J. A., et al., Cancer Res., 39:2406-13 (1979)].
Swiss white mice (25-30 g) were divided into groups of five. On day 0, each mouse was infected by intraperitoneal injection of 10^5 erythrocytic forms of P. yoelii. Starting on day 3, when the blood parasitemia had reached between 5 and 12%, the mice were injected intraperitoneally every 4 hours for three consecutive days with 200 μl of various formulations. In experiment 1, three groups of mice received 0.2, 1, or 5 mg/kg of 5-fluoro-orotate per injection, respectively. An accompanying control group received saline. In experiment 2, three groups of mice received 0.2, 1, or 5 mg/kg of 5-fluoro-orotate plus 800 mg/kg of uridine in a 200 μl saline formulation. An accompanying control group received 800 mg/kg of uridine alone. In experiment 2, mice were pretreated with one injection of 800 mg/kg of uridine two hours before receiving the first injection of 5-fluoro-orotate. Additionally, even though treatment with the pyrimidine analogue stopped on day 6, these mice continued to receive 1500 mg/kg of uridine, three times a day, for three additional days (i.e., up to day 9).

SMILES: O=C(O)c1[nH]c(=O)[nH]c(=O)c1F [5-fluoro-orotate]
- identity of plasma radioactivity ([1]; 90 minutes after injection, Mono Q chromatography): radioactivity in the plasma fraction was due to 5-fluoro-orotate and not some secondary metabolite of the experimental drug
- plasma pharmacokinetic profile in infected mice ([1]; P. yoelii infected (10% parasitemia), 1 mg/kg, vs uninfected mice): essentially the same as that of uninfected mice
- circulating radioactivity associated with blood cells ([1]; [2-14C]-5-fluoro-orotate i.p.): below 10%
- half-life ([1]; mouse, ip, single i.p. dose, plasma, mice, read-out: t1/2 (loss from the circulation)): ~1.5 h
- concentration at 1 h ([1]; mouse, plasma, ip, 0.2 mg/kg i.p., within 60 minutes, read-out: drug concentration within 60 minutes): < 0.5 µM
- Cmax ([1]; mouse, plasma, ip, 0.2 mg/kg i.p., read-out: maximum drug concentration): ≤ 2 µM
- Cmax ([1]; mouse, plasma, ip, single i.p. 5 mg/kg, read-out: peak plasma concentration): ~30 µM
- Tmax ([1]; mouse, plasma, ip, single i.p. 0.2, 1, 5 mg/kg, all dosages, read-out: time of peak plasma concentration): ≤ 0.333 h
- concentration ([1]; single i.p. 5 mg/kg, read-out: plasma concentration after rapid drop): < 10 µM
- tolerance of highest dose ([2]; 5 mg/kg every 4 hours): tolerated only when uridine was administered in combination with 5-fluoro-orotate
- mortality at higher doses ([2]; experiment 1, 1 and 5 mg/kg, no uridine): dose-dependent increase in mortality
- diarrhea in surviving mice ([2]; experiment 1, higher doses, no uridine): showed signs of diarrhea
- weight loss ([2]; experiment 2, 5 mg/kg with uridine (FIG. 6)): no weight loss
- diarrhea ([2]; experiment 2, with uridine): no mouse had diarrhea
